ChEMBL document CHEMBL5705893, “Targeting the mitotic checkpoint for cancer therapy with NMS-P715, an inhibitor of MPS1 kinase” (Cancer Res, 2010)
Activity calls are given as the source filed them. The calls are words filed in the database; no cut-off is given here.

Key:
[1] = target: ALK tyrosine kinase receptor (Homo sapiens, UniProt Q9UM73); assay: Inhibition of recombinant ALK (unknown origin)
[2] = target: CDC7/DBF4 (Cell division cycle 7-related protein kinase/Activator of S phase kinase) (Homo sapiens, UniProt O00311); assay: Inhibition of recombinant CDC7/DBF4 (unknown origin); type: protein-complex assay
[3] = target: Cyclin-dependent kinase 1/cyclin B1 (Homo sapiens, UniProt P06493); assay: Inhibition of recombinant CDK1/CYCB (unknown origin); type: protein-complex assay
[4] = target: Tyrosine-protein kinase JAK1 (Homo sapiens, UniProt P23458); assay: Inhibition of recombinant JAK1 (unknown origin)
Chain of Tyrosine-protein kinase JAK1 (P23458 whole entry): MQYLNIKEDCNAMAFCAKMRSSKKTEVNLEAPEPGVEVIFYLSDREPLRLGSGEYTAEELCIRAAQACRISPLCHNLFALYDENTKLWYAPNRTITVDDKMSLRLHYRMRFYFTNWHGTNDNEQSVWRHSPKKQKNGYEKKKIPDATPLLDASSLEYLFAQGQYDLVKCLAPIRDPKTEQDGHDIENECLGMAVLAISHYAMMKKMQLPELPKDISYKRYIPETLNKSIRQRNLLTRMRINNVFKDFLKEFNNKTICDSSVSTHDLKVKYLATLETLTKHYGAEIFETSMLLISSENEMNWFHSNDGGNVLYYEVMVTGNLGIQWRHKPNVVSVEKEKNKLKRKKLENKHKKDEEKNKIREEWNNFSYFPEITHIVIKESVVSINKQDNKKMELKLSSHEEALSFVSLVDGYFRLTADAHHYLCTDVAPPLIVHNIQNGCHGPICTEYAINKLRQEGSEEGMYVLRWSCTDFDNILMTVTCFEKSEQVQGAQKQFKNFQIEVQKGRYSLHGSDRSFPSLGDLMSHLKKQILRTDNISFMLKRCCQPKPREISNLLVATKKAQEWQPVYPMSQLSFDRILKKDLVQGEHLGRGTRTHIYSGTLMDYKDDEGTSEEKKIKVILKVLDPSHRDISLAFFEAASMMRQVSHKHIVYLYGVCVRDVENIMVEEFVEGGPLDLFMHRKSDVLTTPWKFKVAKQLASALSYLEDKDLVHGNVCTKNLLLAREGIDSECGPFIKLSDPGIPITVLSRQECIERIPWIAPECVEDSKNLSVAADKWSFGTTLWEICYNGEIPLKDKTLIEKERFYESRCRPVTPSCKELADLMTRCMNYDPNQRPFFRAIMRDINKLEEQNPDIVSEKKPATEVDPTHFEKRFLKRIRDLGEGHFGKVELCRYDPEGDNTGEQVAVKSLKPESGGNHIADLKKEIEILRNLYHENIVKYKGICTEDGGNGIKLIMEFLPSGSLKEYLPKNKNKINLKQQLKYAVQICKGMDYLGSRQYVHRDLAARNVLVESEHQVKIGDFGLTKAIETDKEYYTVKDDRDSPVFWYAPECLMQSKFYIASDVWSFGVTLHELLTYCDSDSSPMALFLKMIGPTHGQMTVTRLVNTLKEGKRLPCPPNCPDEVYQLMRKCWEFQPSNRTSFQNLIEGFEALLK

[5] = target: Tyrosine-protein kinase Lyn (Homo sapiens, UniProt P07948); assay: Inhibition of recombinant LYN (unknown origin)
Chain of Tyrosine-protein kinase Lyn (P07948 whole entry): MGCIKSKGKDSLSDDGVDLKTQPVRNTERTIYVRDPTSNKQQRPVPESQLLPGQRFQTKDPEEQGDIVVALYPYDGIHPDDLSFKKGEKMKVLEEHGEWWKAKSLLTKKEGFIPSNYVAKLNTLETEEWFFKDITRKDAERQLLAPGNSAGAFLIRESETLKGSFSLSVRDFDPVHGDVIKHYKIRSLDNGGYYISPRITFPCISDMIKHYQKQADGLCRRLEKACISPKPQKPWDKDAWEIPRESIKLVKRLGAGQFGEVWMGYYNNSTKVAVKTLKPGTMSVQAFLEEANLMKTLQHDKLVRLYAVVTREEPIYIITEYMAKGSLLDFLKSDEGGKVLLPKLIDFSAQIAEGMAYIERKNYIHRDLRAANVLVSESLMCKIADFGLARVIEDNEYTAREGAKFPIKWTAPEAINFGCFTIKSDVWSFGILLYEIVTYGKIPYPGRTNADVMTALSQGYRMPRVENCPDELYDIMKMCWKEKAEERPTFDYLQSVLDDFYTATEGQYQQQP

[6] = target: Serine/threonine-protein kinase 26 (Homo sapiens, UniProt Q9P289); assay: Inhibition of recombinant MST4 (unknown origin)
Chain of Serine/threonine-protein kinase 26 (Q9P289 whole entry): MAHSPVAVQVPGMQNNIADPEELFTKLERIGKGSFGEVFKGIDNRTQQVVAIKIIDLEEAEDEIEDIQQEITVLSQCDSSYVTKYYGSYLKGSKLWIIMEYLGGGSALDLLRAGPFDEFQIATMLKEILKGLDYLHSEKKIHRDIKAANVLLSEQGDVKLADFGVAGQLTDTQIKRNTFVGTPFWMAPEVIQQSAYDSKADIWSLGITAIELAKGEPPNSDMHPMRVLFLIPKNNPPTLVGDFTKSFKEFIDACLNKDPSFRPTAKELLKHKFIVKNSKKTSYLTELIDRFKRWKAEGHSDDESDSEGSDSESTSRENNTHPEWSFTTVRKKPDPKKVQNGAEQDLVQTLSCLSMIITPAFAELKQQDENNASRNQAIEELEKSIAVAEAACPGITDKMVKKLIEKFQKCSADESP

[7] = target: Serine/threonine-protein kinase Nek6 (Homo sapiens, UniProt Q9HC98); assay: Inhibition of recombinant NEK6 (unknown origin)
Chain of Serine/threonine-protein kinase Nek6 (Q9HC98 whole entry): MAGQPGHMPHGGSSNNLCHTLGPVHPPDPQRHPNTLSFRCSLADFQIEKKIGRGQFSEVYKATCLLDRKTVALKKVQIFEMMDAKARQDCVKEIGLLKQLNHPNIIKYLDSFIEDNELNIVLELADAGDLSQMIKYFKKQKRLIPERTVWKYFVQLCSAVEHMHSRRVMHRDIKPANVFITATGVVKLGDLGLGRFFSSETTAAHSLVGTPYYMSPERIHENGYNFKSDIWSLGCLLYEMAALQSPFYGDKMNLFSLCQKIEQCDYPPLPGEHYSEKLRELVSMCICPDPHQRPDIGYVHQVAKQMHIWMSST

[8] = target: Serine/threonine-protein kinase PAK 4 (Homo sapiens, UniProt O96013); assay: Inhibition of recombinant PAK4 (unknown origin)
Chain of Serine/threonine-protein kinase PAK 4 (O96013 whole entry): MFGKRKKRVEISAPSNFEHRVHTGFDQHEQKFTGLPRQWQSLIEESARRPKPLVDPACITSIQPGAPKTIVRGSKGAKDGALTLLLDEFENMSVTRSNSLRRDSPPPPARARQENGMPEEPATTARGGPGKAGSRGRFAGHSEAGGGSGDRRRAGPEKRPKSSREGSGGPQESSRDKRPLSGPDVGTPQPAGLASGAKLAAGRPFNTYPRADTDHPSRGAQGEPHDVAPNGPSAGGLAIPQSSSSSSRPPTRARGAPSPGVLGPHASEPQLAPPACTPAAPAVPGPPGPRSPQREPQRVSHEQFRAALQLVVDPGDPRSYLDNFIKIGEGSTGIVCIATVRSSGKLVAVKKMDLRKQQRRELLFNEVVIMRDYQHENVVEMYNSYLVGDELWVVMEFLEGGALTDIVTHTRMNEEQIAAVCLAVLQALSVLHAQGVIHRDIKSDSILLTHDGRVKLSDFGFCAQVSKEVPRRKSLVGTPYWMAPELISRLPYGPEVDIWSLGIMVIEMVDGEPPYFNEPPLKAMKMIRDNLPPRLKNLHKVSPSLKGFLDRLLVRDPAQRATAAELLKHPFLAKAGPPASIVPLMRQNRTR

[9] = Inhibition of recombinant PDGFR (unknown origin); set-up: species or system Homo sapiens
[10] = target: Protein kinase C beta type (Homo sapiens, UniProt P05771); assay: Inhibition of recombinant PKCbeta (unknown origin)
[11] = target: Vascular endothelial growth factor receptor 3 (Homo sapiens, UniProt P35916); assay: Inhibition of recombinant VEGFR3 (unknown origin)
[12] = test system: BT-549; assay: Antiproliferative activity against human BT-549 cells assessed as inhibition of cell growth incubated for 72 hrs by celltiter-glo assay; type: functional, cell-based; conditions: BT-549, 72 h
[13] = test system: COLO 205; assay: Antiproliferative activity against human COLO 205 cells assessed as inhibition of cell growth incubated for 72 hrs by celltiter-glo assay; type: functional, cell-based; conditions: COLO 205, 72 h
[14] = test system: COLO 320; assay: Antiproliferative activity against human COLO 320 cells assessed as inhibition of cell growth incubated for 72 hrs by celltiter-glo assay; type: functional, cell-based; conditions: COLO 320, 72 h
[15] = test system: SW-403; assay: Antiproliferative activity against human SW403 cells assessed as inhibition of cell growth incubated for 72 hrs by celltiter-glo assay; type: functional, cell-based; conditions: SW-403, 72 h
[16] = test system: HCC 2998; assay: Antiproliferative activity against human HCC 2998 cells assessed as inhibition of cell growth incubated for 72 hrs by celltiter-glo assay; type: functional, cell-based; conditions: HCC 2998, 72 h
[17] = test system: LoVo; assay: Antiproliferative activity against human LoVo cells assessed as inhibition of cell growth incubated for 72 hrs by celltiter-glo assay; type: functional, cell-based
[18] = test system: SW1417; assay: Antiproliferative activity against human SW1417 cells assessed as inhibition of cell growth incubated for 72 hrs by celltiter-glo assay; type: functional, cell-based; conditions: SW1417, 72 h
[19] = test system: T98G; assay: Antiproliferative activity against human T98G cells assessed as inhibition of cell growth incubated for 72 hrs by celltiter-glo assay; type: functional, cell-based
[20] = test system: HEL; assay: Antiproliferative activity against human HEL cells assessed as inhibition of cell growth incubated for 72 hrs by celltiter-glo assay; type: functional, cell-based
[21] = test system: TF-1; assay: Antiproliferative activity against human TF-1 cells assessed as inhibition of cell growth incubated for 72 hrs by celltiter-glo assay; type: functional, cell-based; conditions: TF-1, 72 h
[22] = test system: SET-2; assay: Antiproliferative activity against human SET2 cells assessed as inhibition of cell growth incubated for 72 hrs by celltiter-glo assay; type: functional, cell-based; conditions: SET-2, 72 h
[23] = test system: NCI-H146; assay: Antiproliferative activity against human NCI-H146 cells assessed as inhibition of cell growth incubated for 72 hrs by celltiter-glo assay; type: functional, cell-based; conditions: NCI-H146, 72 h
[24] = test system: A-375; assay: Antiproliferative activity against human A-375 cells assessed as inhibition of cell growth incubated for 72 hrs by celltiter-glo assay; type: functional, cell-based; conditions: A-375, 72 h
[25] = test system: SK-MEL-2; assay: Antiproliferative activity against human SK-MEL-2 cells assessed as inhibition of cell growth incubated for 72 hrs by celltiter-glo assay; type: functional, cell-based; conditions: SK-MEL-2, 72 h
[26] = test system: UACC-62; assay: Antiproliferative activity against human UACC-62 cells assessed as inhibition of cell growth incubated for 72 hrs by celltiter-glo assay; type: functional, cell-based; conditions: UACC-62, 72 h
[27] = test system: OPM-2; assay: Antiproliferative activity against human OPM-2 cells assessed as inhibition of cell growth incubated for 72 hrs by celltiter-glo assay; type: functional, cell-based; conditions: OPM-2, 72 h
[28] = test system: NCI-H929; assay: Antiproliferative activity against human NCI-H929 cells assessed as inhibition of cell growth incubated for 72 hrs by celltiter-glo assay; type: functional, cell-based; conditions: NCI-H929, 72 h
[29] = Antiproliferative activity against human GM13705 cells assessed as inhibition of cell growth incubated for 72 hrs by celltiter-glo assay; type: functional, cell-based; conditions: GM13705, 72 h
[30] = test system: A498; assay: Antiproliferative activity against human A498 cells assessed as inhibition of cell growth incubated for 72 hrs by celltiter-glo assay; type: functional, cell-based; conditions: A498, 72 h
[31] = target: Maternal embryonic leucine zipper kinase (Homo sapiens, UniProt Q14680); assay: Inhibition of recombinant MELK (unknown origin) preincubated for 60 mins
[32] = test system: HeLa; assay: Induction of mitotic arrest in human nocodazole-arrested HeLa cells assessed as delocalization of MAD1 in presence of MG132; type: functional, cell-based
[33] = test system: HeLa; assay: Induction of mitotic arrest in human nocodazole-arrested HeLa cells assessed as delocalization of MAD1 at 1 micromol/L in presence of MG132; type: functional, cell-based; conditions: dose 1.0 µmol/L
[34] = test system: A2780; assay: Induction of apoptosis in human A2780 cells assessed as effect on histone H2AX phosphorylation 0.2 to 1 micromol/L incubated for 2 to 72 hrs by Western blot analysis; type: functional, cell-based; conditions: dose 0.2-1 µmol/L, time 2-72 hrs
[35] = test system: U2OS; assay: Induction of mitotic arrest in human U2OS cells expressing YFP alpha-tubulin assessed as chromosome misalignment in metaphase incubated for 1 hr by DAPI staining based confocal microscopic analysis; type: functional, cell-based
[36] = test system: BJ; assay: Inhibition of colony formation in human BJ cells assessed as decrease in colony number at 0.5 to 3 uM incubated for 72 hrs followed by compound washout and measured after 18 days by crystal violet staining based assay; type: functional, cell-based; conditions: dose 0.5-3 µM
[37] = Cmax in Athymic nu-nu mouse at 100 mg/kg, po measured upto 24 hrs by LC-MS/MS analysis; type: ADME, organism-based; conditions: in vivo
[38] = Volume of distribution at steady state in Athymic nu-nu mouse at 10 mg/kg, iv measured upto 24 hrs by LC-MS/MS analysis; type: ADME, organism-based; conditions: in vivo, read-out: Vdss
[39] = AUC in Athymic nu-nu mouse at 10 mg/kg, iv measured upto 24 hrs by LC-MS/MS analysis; type: ADME, organism-based; conditions: in vivo
[40] = AUC in Athymic nu-nu mouse at 100 mg/kg, po measured upto 24 hrs by LC-MS/MS analysis; type: ADME, organism-based; conditions: in vivo
[41] = target: Epidermal growth factor receptor (Homo sapiens, UniProt P00533)
Description: Inhibition of recombinant EGFR1 (unknown origin)

[42] = target: Dual specificity protein kinase TTK (Homo sapiens) (UniProt P33981)
Description: Binding affinity to recombinant human MPS1 assessed as half life

Chain of ALK tyrosine kinase receptor (Q9UM73 whole entry): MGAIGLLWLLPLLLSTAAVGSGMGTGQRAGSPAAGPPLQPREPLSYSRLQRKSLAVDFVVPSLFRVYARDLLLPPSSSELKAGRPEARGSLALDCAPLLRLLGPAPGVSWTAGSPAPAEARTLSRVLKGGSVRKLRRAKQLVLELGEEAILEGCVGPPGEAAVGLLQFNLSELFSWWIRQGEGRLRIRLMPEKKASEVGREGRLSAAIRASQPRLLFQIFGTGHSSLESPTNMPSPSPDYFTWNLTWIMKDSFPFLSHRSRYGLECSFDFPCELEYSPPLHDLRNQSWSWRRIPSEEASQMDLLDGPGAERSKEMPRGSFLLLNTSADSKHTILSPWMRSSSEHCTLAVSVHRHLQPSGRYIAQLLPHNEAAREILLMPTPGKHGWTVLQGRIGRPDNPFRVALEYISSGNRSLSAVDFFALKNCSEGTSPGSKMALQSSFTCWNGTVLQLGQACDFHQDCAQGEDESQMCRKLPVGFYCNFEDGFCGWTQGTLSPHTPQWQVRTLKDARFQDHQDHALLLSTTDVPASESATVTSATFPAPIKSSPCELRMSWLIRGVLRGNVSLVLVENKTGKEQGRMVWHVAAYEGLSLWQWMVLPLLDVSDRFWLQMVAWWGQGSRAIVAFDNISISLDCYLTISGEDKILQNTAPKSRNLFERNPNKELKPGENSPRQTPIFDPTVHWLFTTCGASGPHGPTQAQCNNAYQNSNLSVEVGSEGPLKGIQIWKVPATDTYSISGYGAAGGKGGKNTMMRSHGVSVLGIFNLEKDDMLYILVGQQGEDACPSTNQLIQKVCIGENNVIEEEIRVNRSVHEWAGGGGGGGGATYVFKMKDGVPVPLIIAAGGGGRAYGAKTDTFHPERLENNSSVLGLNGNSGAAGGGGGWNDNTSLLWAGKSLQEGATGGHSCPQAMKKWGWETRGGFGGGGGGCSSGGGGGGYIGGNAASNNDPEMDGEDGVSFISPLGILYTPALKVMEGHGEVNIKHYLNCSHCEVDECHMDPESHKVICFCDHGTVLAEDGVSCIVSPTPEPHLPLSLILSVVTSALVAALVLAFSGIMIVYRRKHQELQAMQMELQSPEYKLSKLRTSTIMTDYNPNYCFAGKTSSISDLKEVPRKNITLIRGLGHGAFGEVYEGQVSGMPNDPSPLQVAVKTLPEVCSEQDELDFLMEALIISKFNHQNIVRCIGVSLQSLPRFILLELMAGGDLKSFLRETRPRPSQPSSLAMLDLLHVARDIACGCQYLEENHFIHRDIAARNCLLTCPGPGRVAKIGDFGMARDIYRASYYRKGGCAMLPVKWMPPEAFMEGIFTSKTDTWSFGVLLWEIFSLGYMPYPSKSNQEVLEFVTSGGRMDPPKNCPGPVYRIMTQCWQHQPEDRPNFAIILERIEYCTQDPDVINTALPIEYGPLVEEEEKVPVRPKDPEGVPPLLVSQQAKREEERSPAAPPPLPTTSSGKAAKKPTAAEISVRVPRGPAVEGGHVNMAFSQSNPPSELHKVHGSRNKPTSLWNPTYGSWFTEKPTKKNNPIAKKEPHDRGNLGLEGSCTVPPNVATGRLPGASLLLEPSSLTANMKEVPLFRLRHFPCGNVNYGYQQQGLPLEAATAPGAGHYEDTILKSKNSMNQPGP

Work on CCc1cccc(CC)c1NC(=O)c1nn(C)c2c1CCc1cnc(Nc3ccc(C(=O)NC4CCN(C)CC4)cc3OC(F)(F)F)nc1-2 yielded an IC50 [1] greater than 10 µM, an IC50 [2] greater than 10 µM and an IC50 [3] greater than 10 µM. The IC50 [4] was greater than 10 µM, the IC50 [5] was greater than 10 µM and the IC50 [6] was greater than 10 µM. It also gave an IC50 [7] of 6.02 µM, an IC50 [8] greater than 10 µM and an IC50 [9] greater than 10 µM. The IC50 [10] was greater than 10 µM, the IC50 [11] was greater than 10 µM and the IC50 [12] was 1.05 µM. For the same molecule, the IC50 [13] was 0.592 µM, the IC50 [14] was 1.28 µM and the IC50 [15] was 1.57 µM. For the same molecule, the IC50 [16] was 1.81 µM, the IC50 [17] was 1.87 µM and the IC50 [18] was 8.84 µM. It also gave an IC50 [19] of 0.203 µM, an IC50 [20] of 5.49 µM and an IC50 [21] of 6.53 µM. The IC50 [22] was 10 µM, the IC50 [23] was 4.28 µM and the IC50 [24] was 0.796 µM. For the same molecule, the IC50 [25] was 1.49 µM, the IC50 [26] was 4.75 µM and the IC50 [27] was 2.31 µM. The IC50 [28] was 10 µM, the IC50 [29] was 10 µM and the IC50 [30] was 1.71 µM. The IC50 [31] was less than 10 µM, the Activity [32] was “Active” and the Activity [33] was “Active”. For the same molecule, the Activity [34] was “Active”, the Activity [35] was “Active” and the Activity [36] was “Active”. It also gave a Cmax [37] of 1790 nM, a Vd [38] of 5.45 L/kg and an AUC at 24 h [39] of 22.4 µM·h. The AUC at 24 h [40] was 50.7 µM·h, the IC50 [41] was greater than 10 µM and the T1/2 [42] was 9.76 min.
